Measured values published in article PMC2993883 (Journal of Neural Transmission, 2010).

Key:
Assay in all cases: IMAP fluorescence polarization PDE assay, 8-point IC50
Assay type in all cases: biochemical
[1] = target: PDE-2A3 (Homo sapiens, UniProt O00408)
[2] = target: PDE-3A (Homo sapiens, UniProt Q14432)
[3] = target: PDE-10A1 (Homo sapiens, UniProt Q9Y233)
[4] = target: PDE-4A1 (Homo sapiens, UniProt P27815)
PDE-4A1, sequence (P27815 265-886 limits assumed): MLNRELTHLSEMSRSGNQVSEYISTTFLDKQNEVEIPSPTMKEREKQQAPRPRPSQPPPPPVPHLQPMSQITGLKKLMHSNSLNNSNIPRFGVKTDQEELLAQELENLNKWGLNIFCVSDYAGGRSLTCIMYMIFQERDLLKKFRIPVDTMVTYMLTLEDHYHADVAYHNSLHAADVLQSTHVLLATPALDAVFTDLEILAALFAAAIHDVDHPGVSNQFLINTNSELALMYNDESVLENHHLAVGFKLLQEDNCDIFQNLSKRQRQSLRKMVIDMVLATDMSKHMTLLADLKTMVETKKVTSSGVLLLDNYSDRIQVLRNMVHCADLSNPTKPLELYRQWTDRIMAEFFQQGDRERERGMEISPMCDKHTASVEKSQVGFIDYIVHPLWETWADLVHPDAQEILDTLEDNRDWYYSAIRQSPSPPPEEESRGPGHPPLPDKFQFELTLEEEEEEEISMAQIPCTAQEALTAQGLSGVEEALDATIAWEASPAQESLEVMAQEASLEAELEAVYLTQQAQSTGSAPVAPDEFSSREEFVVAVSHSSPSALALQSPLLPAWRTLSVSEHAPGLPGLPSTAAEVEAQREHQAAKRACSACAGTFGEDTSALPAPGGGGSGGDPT

PDE-3A, sequence (Q14432 whole entry): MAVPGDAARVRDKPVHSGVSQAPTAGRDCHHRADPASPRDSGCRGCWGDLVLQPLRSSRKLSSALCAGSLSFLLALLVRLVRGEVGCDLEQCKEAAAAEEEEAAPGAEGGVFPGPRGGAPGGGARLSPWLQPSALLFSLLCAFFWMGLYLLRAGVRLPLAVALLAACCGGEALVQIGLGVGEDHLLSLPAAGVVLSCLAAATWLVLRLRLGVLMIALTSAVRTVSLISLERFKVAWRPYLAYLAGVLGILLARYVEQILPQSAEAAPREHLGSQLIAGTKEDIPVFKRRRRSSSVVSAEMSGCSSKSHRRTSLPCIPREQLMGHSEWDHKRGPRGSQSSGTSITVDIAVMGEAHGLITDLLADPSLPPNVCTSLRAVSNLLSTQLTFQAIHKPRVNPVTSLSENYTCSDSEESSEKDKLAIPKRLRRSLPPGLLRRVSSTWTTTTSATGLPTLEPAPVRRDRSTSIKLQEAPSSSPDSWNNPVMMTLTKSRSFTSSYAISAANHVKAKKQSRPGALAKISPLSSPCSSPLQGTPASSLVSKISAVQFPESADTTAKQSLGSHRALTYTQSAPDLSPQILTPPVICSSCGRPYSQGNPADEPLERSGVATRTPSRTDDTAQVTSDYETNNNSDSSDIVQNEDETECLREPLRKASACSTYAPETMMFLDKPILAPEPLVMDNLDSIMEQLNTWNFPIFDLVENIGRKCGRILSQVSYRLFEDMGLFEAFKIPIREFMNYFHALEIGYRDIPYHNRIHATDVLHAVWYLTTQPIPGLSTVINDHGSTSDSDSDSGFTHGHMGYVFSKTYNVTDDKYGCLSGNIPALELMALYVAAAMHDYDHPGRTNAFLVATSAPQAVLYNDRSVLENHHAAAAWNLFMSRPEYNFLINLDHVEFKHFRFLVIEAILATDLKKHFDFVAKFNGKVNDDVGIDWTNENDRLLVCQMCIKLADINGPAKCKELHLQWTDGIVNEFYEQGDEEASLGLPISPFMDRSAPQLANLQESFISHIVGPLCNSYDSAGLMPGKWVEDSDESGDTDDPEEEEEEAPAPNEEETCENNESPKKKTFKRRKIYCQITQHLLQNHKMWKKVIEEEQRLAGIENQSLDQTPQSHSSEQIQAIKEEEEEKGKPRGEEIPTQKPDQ
PDE-10A1, sequence (Q9Y233 1-779 isoform Q9Y233-1): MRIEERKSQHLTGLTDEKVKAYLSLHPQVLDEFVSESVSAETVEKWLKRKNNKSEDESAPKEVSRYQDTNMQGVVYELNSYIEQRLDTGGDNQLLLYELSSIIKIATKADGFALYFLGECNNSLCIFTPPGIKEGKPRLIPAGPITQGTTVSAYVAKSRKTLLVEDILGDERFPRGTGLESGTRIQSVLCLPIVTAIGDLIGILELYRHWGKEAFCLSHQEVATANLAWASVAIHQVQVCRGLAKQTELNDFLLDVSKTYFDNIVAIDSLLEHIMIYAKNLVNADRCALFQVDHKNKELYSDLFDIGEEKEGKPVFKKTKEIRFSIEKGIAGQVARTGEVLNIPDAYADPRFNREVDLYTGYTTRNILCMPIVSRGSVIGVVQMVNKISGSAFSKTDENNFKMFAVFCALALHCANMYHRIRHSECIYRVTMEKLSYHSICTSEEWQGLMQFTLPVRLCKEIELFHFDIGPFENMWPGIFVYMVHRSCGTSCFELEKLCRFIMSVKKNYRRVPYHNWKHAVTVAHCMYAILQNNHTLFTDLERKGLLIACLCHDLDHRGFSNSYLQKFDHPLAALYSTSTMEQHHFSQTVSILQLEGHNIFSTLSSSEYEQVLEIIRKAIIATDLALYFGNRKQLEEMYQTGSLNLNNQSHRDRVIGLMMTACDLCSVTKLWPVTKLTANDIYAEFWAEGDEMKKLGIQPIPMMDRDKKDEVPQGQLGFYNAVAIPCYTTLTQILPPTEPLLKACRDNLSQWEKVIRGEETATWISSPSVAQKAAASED
PDE-2A3, sequence (O00408 2-941): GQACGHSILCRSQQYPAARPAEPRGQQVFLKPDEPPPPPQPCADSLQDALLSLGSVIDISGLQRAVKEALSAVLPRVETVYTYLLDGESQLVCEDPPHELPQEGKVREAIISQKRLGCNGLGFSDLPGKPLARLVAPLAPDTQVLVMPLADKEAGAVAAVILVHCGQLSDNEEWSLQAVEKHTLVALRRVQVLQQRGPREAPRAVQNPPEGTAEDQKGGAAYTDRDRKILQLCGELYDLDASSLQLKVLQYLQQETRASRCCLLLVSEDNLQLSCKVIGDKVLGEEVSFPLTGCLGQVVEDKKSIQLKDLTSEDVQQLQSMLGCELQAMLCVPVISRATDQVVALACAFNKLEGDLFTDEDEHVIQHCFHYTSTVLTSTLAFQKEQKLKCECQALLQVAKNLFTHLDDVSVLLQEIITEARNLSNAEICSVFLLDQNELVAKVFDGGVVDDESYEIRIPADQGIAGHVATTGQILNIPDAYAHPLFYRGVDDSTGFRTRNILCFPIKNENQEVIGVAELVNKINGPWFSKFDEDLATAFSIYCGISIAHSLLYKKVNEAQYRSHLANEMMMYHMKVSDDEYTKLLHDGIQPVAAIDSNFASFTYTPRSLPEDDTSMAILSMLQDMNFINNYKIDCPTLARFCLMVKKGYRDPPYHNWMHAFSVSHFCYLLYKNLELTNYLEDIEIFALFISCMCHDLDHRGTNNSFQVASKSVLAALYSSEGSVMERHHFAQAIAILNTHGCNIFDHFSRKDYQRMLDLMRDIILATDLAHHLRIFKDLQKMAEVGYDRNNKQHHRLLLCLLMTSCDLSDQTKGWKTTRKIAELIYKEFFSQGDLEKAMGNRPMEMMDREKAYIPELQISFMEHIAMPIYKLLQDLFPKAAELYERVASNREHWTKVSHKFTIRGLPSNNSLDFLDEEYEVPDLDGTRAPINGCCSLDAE

In the case of `CCC1C(C)=NN=C(c2ccc(OC)c(OC)c2)c2cc(OC)c(OC)cc21` (racemic) [tofisopam, 1-(3,4-dimethoxyphenyl)-5-ethyl-7,8-dimethoxy-4-methyl-5H-2,3-benzodiazepine], the IC50 [1] is reported as 2110 nM, the IC50 [2] is reported as 1980 nM and the IC50 [3] is reported as 920 nM. It also gave an IC50 [4] of 420 nM.
